System: Mus musculus
Experiment: Tested for inhibitory activity against CT strain of Trypanosoma rhodesiense infected mice after administration at 106 mg/kg; Not active; call rule not given here
Assay type: functional, organism-based
Parameters: dose 106 mg/kg

COc1ccc(CC(N)C(=O)NC2C(C)OC(n3cnc4c(N(C)C)ncnc43)C2O)cc1 (stereo unspecified)
IC50: Not Active

Reference: ChEMBL document CHEMBL1121769, “5'Chloropuromycin. Inhibition of protein synthesis and antitrypanosomal activity” (J Med Chem, 1981)
